Target: Probable G-protein coupled receptor 34 (Homo sapiens, UniProt Q9UPC5)
Assay: Antagonist activity against human lung GPR34 expressed in CHO cells co-expressing Galpha116 assessed as inhibition of lysophosphatidyl serine-induced increase in intracellular calcium level pre-incubated before lysophosphatidyl serine addition and measured after 180 secs by Fluo 3-AM dye based fluorescent assay
Type: functional, cell-based

Sequence of Probable G-protein coupled receptor 34 (Q9UPC5 whole entry): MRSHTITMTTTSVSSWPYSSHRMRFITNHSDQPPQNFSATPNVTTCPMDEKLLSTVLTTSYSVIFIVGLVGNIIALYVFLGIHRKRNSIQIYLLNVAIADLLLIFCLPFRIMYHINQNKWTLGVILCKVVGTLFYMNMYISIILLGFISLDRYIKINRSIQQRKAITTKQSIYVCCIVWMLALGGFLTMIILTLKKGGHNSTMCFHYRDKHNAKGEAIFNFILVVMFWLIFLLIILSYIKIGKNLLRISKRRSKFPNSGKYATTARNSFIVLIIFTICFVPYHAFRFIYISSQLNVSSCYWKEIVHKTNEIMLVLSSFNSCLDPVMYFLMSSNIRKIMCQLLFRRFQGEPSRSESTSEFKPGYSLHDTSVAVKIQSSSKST

| Compound | IC50 |
| --- | --- |
| O=C(Cc1ccc(Oc2ccccc2)cc1)NC1(C(=O)O)Cc2ccc(-c3ccc(Cl)cc3)cc2C1 (centres undefined) | ≤ 1000 nM |
| O=C(O)C1(NS(=O)(=O)Cc2ccc(F)cc2)Cc2ccc(-c3ccc(Cl)cc3)cc2C1 (centres undefined) | ≤ 1000 nM |
| O=C(Cc1ccc(Oc2nc3ccccc3s2)cc1)NC1(C(=O)O)Cc2ccc(-c3ccc(Cl)cc3)cc2C1 (centres undefined) | ≤ 1000 nM |
| Cc1ccc(COc2ccc(CC(NC(=O)c3cc4ccc(-c5ccc(Cl)cc5)cc4o3)C(=O)O)cc2)cc1 (centres undefined) | ≤ 1000 nM |
| O=C(O)CN(Cc1ccc(OCc2ccc(F)cc2)cc1)C(=O)c1cn2cc(-c3ccc(Cl)cc3)ccc2n1 | ≤ 1000 nM |
| O=C(Cc1ccc(OCc2ccc(F)cc2)cc1)NC1(C(=O)O)Cc2ccc(-c3ccccc3Cl)cc2C1 (centres undefined) | ≤ 1000 nM |
| O=C(NC(Cc1ccc(OCc2ccccc2F)cc1)C(=O)O)c1cn2cc(-c3ccc(Cl)cc3)ccc2n1 (centres undefined) | ≤ 1000 nM |
| Cc1c(C(=O)N[C@@H](Cc2ccc(OCc3ccoc3)cc2)C(=O)O)oc2cc(-c3ccc(Cl)cc3)ccc12 | ≤ 1000 nM |
| O=C(NC(Cc1ccc(OCc2ccc(F)cc2)cc1)C(=O)O)c1nc2cc(-c3ccc(Cl)cc3)ccc2[nH]1 (centres undefined) | ≤ 1000 nM |
| O=C(NC(Cc1ccc(OCc2cccc(F)c2)cc1)C(=O)O)c1cn2cc(-c3ccc(Cl)cc3)ccc2n1 (centres undefined) | ≤ 1000 nM |
| O=C(NC(Cc1ccc(OCc2ccc(F)cc2)cc1)C(=O)O)c1cn2ccc(C#Cc3ccccc3)cc2n1 (centres undefined) | ≤ 1000 nM |
| Nc1ccccc1COc1ccc(CC(=O)NC2(C(=O)O)Cc3ccc(-c4ccc(Cl)cc4)cc3C2)cc1 (centres undefined) | ≤ 1000 nM |
| O=C(Cc1ccc(OC2Cc3ccccc3C2)cc1)NC1(C(=O)O)Cc2ccc(-c3ccc(Cl)cc3)cc2C1 (centres undefined) | ≤ 1000 nM |
| O=C(N[C@@H](Cc1ccc(OCc2ccsc2)cc1)C(=O)O)c1cn2cc(-c3ccc(Cl)cc3)ccc2n1 | ≤ 1000 nM |
| O=C(NC(Cc1ccc(OCc2ccccc2)cc1)c1nnn[nH]1)c1cn2nc(-c3ccc(Cl)cc3)ccc2n1 (centres undefined) | ≤ 1000 nM |
| Nc1c(C(=O)NC(Cc2ccc(OCc3ccccc3)cc2)C(=O)O)oc2ccc(-c3ccc(Cl)cc3)cc12 (centres undefined) | ≤ 1000 nM |
| O=C(NC(Cc1ccc(OCc2ccccc2)cc1)c1nnn[nH]1)c1cn2cc(-c3ccc(Cl)cc3)ccc2n1 (centres undefined) | ≤ 1000 nM |
| O=C(Cc1ccc(OCc2ccc(F)cc2)cc1)NC1(C(=O)O)Cc2ccc(-c3ccc(Cl)s3)cc2C1 (centres undefined) | ≤ 1000 nM |
| O=C(NC(Cc1ccc(OCc2ccc(F)cc2)cc1)C(=O)O)c1cn2cc(-c3ccc(Cl)cc3)ccc2n1 (centres undefined) | ≤ 1000 nM |
| Cc1c(C(=O)N[C@@H](Cc2ccc(OCc3ccsc3)cc2)C(=O)O)oc2cc(-c3ccc(Cl)cc3)ccc12 | ≤ 1000 nM |
| Cc1c(C(=O)N[C@H](C(=O)O)c2ccc(OCc3ccccc3)cc2)oc2cc(-c3ccc(Cl)cc3)ccc12 | ≤ 1000 nM |
| Nc1cccc(COc2ccc(CC(=O)NC3(C(=O)O)Cc4ccc(-c5ccc(Cl)cc5)cc4C3)cc2)c1 (centres undefined) | ≤ 1000 nM |
| O=C(Cc1ccc(OCc2ccsc2)cc1)NC1(C(=O)O)Cc2ccc(-c3ccc(Cl)cc3)cc2C1 (centres undefined) | ≤ 1000 nM |
| Cc1c(C(=O)N[C@@H](Cc2ccc(OCc3ccccc3)cc2)C(=O)O)oc2cc(-c3ccc(Cl)cc3)ccc12 | ≤ 1000 nM |
| O=C(N[C@@H](Cc1ccc(OCc2ccccc2)cc1)C(=O)O)c1cn2ccc(-c3ccc(Cl)cc3)cc2n1 | ≤ 1000 nM |
| O=C(Cc1ccc(OCc2ccc(F)cc2)cc1)NC1(C(=O)O)Cc2ccc(-c3cccc(Cl)c3)cc2C1 (centres undefined) | ≤ 1000 nM |
| O=C(Cc1ccc(OCc2ccc(F)cc2)cc1)NC1(C(=O)O)Cc2ccc(-c3ccc(Cl)cc3)cc2C1 (centres undefined) | ≤ 1000 nM |
| O=C(Cc1ccc(OCc2ccccc2)cc1)NC1(C(=O)O)Cc2ccc(-c3ccc(Cl)cc3)cc2C1 (centres undefined) | ≤ 1000 nM |
| O=C(NC(Cc1ccc(OCc2ccccc2)cc1)C(=O)O)c1cn2cc(CCc3ccccc3)ccc2n1 (centres undefined) | ≤ 1000 nM |

From ChEMBL document CHEMBL3714719, “Regulating agent of GPR34 receptor function” (2010)
